Measured values taken from ChEMBL document CHEMBL3098096, “Design, synthesis and antibacterial activities of 5-(pyrazin-2-yl)-4H-1,2,4-triazole-3-thiol derivatives containing Schiff base formation as FabH inhibitory” (Bioorg Med Chem Lett, 2014).
Values after ≈ are worked out from the molar mass of the structure shown.

Legend:
Pseudomonas aeruginosa = test: Antimicrobial activity against Pseudomonas aeruginosa ATCC 27853 assessed as […] growth inhibition after 24 hrs by two-fold serial broth dilution method; type: functional; conditions: ATCC 27853, 24 h
Staphylococcus aureus = test: Antimicrobial activity against Staphylococcus aureus ATCC 25923 assessed as […] growth inhibition after 24 hrs by two-fold serial broth dilution method; type: functional; conditions: ATCC 25923, 24 h
[1] = tested on: Bacillus amyloliquefaciens; test: Antimicrobial activity against Bacillus amyloliquefaciens 23842 assessed as […] growth inhibition after 24 hrs by two-fold serial broth dilution method; type: functional; conditions: Bacillus amyloliquefaciens, 23842, 24 h
Escherichia coli = test: Antimicrobial activity against Escherichia coli ATCC 25922 assessed as […] growth inhibition after 24 hrs by two-fold serial broth dilution method; type: functional; conditions: ATCC 25922, 24 h
Bacillus subtilis = test: Antimicrobial activity against Bacillus subtilis ATCC 530 assessed as […] growth inhibition after 24 hrs by two-fold serial broth dilution method; type: functional; conditions: ATCC 530, 24 h
NIH3T3 = test: Cytotoxicity against mouse NIH/3T3 cells after 24 hrs by MTT assay; type: cell-based; conditions: NIH3T3, 24 h
[2] = Toxicity in human erythrocytes assessed as hemolytic activity by spectrophotometric analysis; type: cell-based; conditions: erythrocyte
[3] = target: T1, 3-oxoacyl-[acyl-carrier-protein] synthase 3 (Escherichia coli, UniProt C3TDZ2); test: Inhibition of Escherichia coli FabH overexpressed in Escherichia coli DH10B cells assessed as incorporation of [3H] in the product after 25 mins by liquid scintillation counting analysis
T1 sequence (C3TDZ2 whole entry): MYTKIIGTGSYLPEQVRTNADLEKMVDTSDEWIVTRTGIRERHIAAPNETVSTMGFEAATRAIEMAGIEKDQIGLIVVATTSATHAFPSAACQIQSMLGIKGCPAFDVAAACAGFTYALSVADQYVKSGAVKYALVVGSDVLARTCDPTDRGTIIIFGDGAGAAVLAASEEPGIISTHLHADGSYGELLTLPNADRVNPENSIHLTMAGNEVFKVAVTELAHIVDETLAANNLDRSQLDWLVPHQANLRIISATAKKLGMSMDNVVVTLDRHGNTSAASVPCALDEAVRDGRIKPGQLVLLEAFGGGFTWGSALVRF

Compound | MIC (Pseudomonas aeruginosa) | MIC (Staphylococcus aureus) | MIC [1] | MIC (Escherichia coli) | MIC (Bacillus subtilis) | IC50 (NIH3T3) | LC30 [2] | IC50 [3]
Fc1cccc(/C=N/n2c(S)nnc2-c2cnccn2)c1 | > 50 µg/mL | 50 µg/mL (≈ 166 µM) | 50 µg/mL (≈ 166 µM) | 25 µg/mL (≈ 83.2 µM) | > 50 µg/mL |  |  | 
NC[C@H]1O[C@H](O[C@H]2[C@H](O)[C@@H](O[C@H]3O[C@H](CO)[C@@H](O)[C@H](N)[C@H]3O)[C@H](N)C[C@@H]2N)[C@H](N)[C@@H](O)[C@@H]1O [BEKANAMYCIN] | 1.56 µg/mL (≈ 3.23 µM) | 1.56 µg/mL (≈ 3.23 µM) | 1.56 µg/mL (≈ 3.23 µM) | 3.13 µg/mL (≈ 6.47 µM) | 3.13 µg/mL (≈ 6.47 µM) | 140 µM | > 10 mg/mL | 6.3 µM
Cc1ccc(/C=N/n2c(S)nnc2-c2cnccn2)cc1 | 50 µg/mL (≈ 169 µM) | 25 µg/mL (≈ 84.4 µM) | 25 µg/mL (≈ 84.4 µM) | 12.5 µg/mL (≈ 42.2 µM) | 25 µg/mL (≈ 84.4 µM) | 156 µM | > 10 mg/mL | 27.1 µM
COc1ccc(/C=N/n2c(S)nnc2-c2cnccn2)cc1 | 25 µg/mL (≈ 80 µM) | 50 µg/mL (≈ 160 µM) | 25 µg/mL (≈ 80 µM) | 12.5 µg/mL (≈ 40 µM) | 50 µg/mL (≈ 160 µM) |  |  | 
COc1ccc(/C=N/n2c(S)nnc2-c2cnccn2)cc1OC | 50 µg/mL (≈ 146 µM) | 12.5 µg/mL (≈ 36.5 µM) | 25 µg/mL (≈ 73 µM) | 25 µg/mL (≈ 73 µM) | 25 µg/mL (≈ 73 µM) | 163 µM | > 10 mg/mL | 45.5 µM
Sc1nnc(-c2cnccn2)n1/N=C/c1ccc(Cl)cc1Cl | > 50 µg/mL | 50 µg/mL (≈ 142 µM) | > 50 µg/mL | 50 µg/mL (≈ 142 µM) | > 50 µg/mL | 206 µM | > 10 mg/mL | > 100 µM
Oc1ccc(/C=N/n2c(S)nnc2-c2cnccn2)cc1 | 25 µg/mL (≈ 83.8 µM) | 50 µg/mL (≈ 168 µM) | 25 µg/mL (≈ 83.8 µM) | 12.5 µg/mL (≈ 41.9 µM) | 25 µg/mL (≈ 83.8 µM) | 175 µM | > 10 mg/mL | 29.3 µM
COc1cc(/C=N/n2c(S)nnc2-c2cnccn2)cc(OC)c1OC | 12.5 µg/mL (≈ 33.6 µM) | 12.5 µg/mL (≈ 33.6 µM) | 25 µg/mL (≈ 67.1 µM) | 6.25 µg/mL (≈ 16.8 µM) | 6.25 µg/mL (≈ 16.8 µM) | 169 µM | > 10 mg/mL | 15.1 µM
Sc1nnc(-c2cnccn2)n1/N=C/c1ccc(Br)cc1 | 50 µg/mL (≈ 138 µM) | 50 µg/mL (≈ 138 µM) | 25 µg/mL (≈ 69.2 µM) | 50 µg/mL (≈ 138 µM) | 25 µg/mL (≈ 69.2 µM) |  |  | 
Oc1cccc(/C=N/n2c(S)nnc2-c2cnccn2)c1 | 25 µg/mL (≈ 83.8 µM) | > 50 µg/mL | 50 µg/mL (≈ 168 µM) | 25 µg/mL (≈ 83.8 µM) | 50 µg/mL (≈ 168 µM) | 151 µM | > 10 mg/mL | 48.3 µM
COc1cccc(/C=N/n2c(S)nnc2-c2cnccn2)c1 | 50 µg/mL (≈ 160 µM) | > 50 µg/mL | 50 µg/mL (≈ 160 µM) | 25 µg/mL (≈ 80 µM) | 50 µg/mL (≈ 160 µM) |  |  | 
Oc1ccccc1/C=N/n1c(S)nnc1-c1cnccn1 | 1.56 µg/mL (≈ 5.23 µM) | 1.56 µg/mL (≈ 5.23 µM) | 0.78 µg/mL (≈ 2.61 µM) | 0.39 µg/mL (≈ 1.31 µM) | 0.78 µg/mL (≈ 2.61 µM) | 131 µM | > 10 mg/mL | 5.2 µM
COc1cc(OC)c(OC)cc1/C=N/n1c(S)nnc1-c1cnccn1 | 12.5 µg/mL (≈ 33.6 µM) | 25 µg/mL (≈ 67.1 µM) | 6.25 µg/mL (≈ 16.8 µM) | 6.25 µg/mL (≈ 16.8 µM) | 3.13 µg/mL (≈ 8.4 µM) | 142 µM | > 10 mg/mL | 12.8 µM
Fc1ccccc1/C=N/n1c(S)nnc1-c1cnccn1 | 50 µg/mL (≈ 166 µM) | 50 µg/mL (≈ 166 µM) | 50 µg/mL (≈ 166 µM) | 25 µg/mL (≈ 83.2 µM) | 50 µg/mL (≈ 166 µM) |  |  | 
Oc1ccc(/C=N/n2c(S)nnc2-c2cnccn2)cc1O | 12.5 µg/mL (≈ 39.8 µM) | 25 µg/mL (≈ 79.5 µM) | 25 µg/mL (≈ 79.5 µM) | 12.5 µg/mL (≈ 39.8 µM) | 25 µg/mL (≈ 79.5 µM) | 148 µM | > 10 mg/mL | 24.6 µM
Sc1nnc(-c2cnccn2)n1/N=C/c1ccccc1 | 25 µg/mL (≈ 88.5 µM) | 50 µg/mL (≈ 177 µM) | 50 µg/mL (≈ 177 µM) | 25 µg/mL (≈ 88.5 µM) | 25 µg/mL (≈ 88.5 µM) |  |  | 
Sc1nnc(-c2cnccn2)n1/N=C/C=C/c1ccccc1 | 25 µg/mL (≈ 81.1 µM) | 50 µg/mL (≈ 162 µM) | 50 µg/mL (≈ 162 µM) | 12.5 µg/mL (≈ 40.5 µM) | 25 µg/mL (≈ 81.1 µM) |  |  | 
COc1ccccc1/C=N/n1c(S)nnc1-c1cnccn1 | 25 µg/mL (≈ 80 µM) | 25 µg/mL (≈ 80 µM) | 25 µg/mL (≈ 80 µM) | 12.5 µg/mL (≈ 40 µM) | 25 µg/mL (≈ 80 µM) | 173 µM | > 10 mg/mL | 22.9 µM
O=[N+]([O-])c1ccc(/C=N/n2c(S)nnc2-c2cnccn2)cc1 | 25 µg/mL (≈ 76.4 µM) | > 50 µg/mL | 50 µg/mL (≈ 153 µM) | 25 µg/mL (≈ 76.4 µM) | 25 µg/mL (≈ 76.4 µM) |  |  | 
Fc1ccc(/C=N/n2c(S)nnc2-c2cnccn2)cc1 | > 50 µg/mL | 50 µg/mL (≈ 166 µM) | 50 µg/mL (≈ 166 µM) | 25 µg/mL (≈ 83.2 µM) | 50 µg/mL (≈ 166 µM) |  |  | 
Sc1nnc(-c2cnccn2)n1/N=C/c1ccc(Cl)cc1 | > 50 µg/mL | 50 µg/mL (≈ 158 µM) | 50 µg/mL (≈ 158 µM) | 50 µg/mL (≈ 158 µM) | > 50 µg/mL | 218 µM | > 10 mg/mL | > 100 µM
